Measured values taken from PMC7504435, “Combined Protein- and Ligand-Observed NMR Workflow to Screen Fragment Cocktails against Multiple Proteins: A Case Study Using Bromodomains” (Molecules, 2020).
Where two headings read alike, the source gives them in different places.

How the values were obtained:
BRD4 D1 = conditions: cited from earlier work
PfGCN5 bromodomain [1] = molecular target: T1, PfGCN5 bromodomain (Plasmodium falciparum, UniProt Q8IB67); experiment: 1H CPMG NMR deconvolution of hit mixtures, PfGCN5; format: binding; conditions: 10 µM protein, 100 µM ligand; for 1H CPMG NMR % Drop in Resonance Intensity PfGCN5: for 9 from competition experiments (footnote a)
T1 sequence (Q8IB67 entry or part of it): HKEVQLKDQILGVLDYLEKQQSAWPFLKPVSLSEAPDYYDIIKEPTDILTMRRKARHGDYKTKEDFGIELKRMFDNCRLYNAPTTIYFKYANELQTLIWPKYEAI
Description: (§1) The second step is a ^1H CPMG NMR deconvolution of the hit mixtures using the non-fluorine-labeled bromodomains. ^1H CPMG NMR employs a T2 filter to take advantage of the difference in transverse relaxation time between protein and small molecules to filter out the bound-state ligand(s). Unlike the PrOF NMR assay, a single protein is assayed in each experiment. A binding event is characterized by a decrease in ligand resonance intensity from the ligand alone spectrum to the ligand + protein spectrum. A hit is defined as a decrease in resonance intensity ≥ 20%. The ^1H CPMG NMR assay can be tuned by changing the protein or ligand concentration, filter length (Figure 1), or hit criteria depending on how stringent the desired hit rate is. The number of ^1H CPMG NMR deconvolution experiments is directly informed from the first step. If a mixture from the first step was only a hit for one protein, a single ^1H CPMG NMR deconvolution experiment is needed. If a mixture from the first step was a hit for both proteins, two separate ^1H CPMG NMR deconvolutions experiments are needed to determine the fragments that bind to each protein.
(§2) ^1H CPMG NMR. ^1H CPMG NMR screen data were acquired on Bruker Avance III HD 500 with the 5 mm Prodigy TCI cryoprobe inverse cryoprobe (^1H 2500:1 S/N). Competition ^1H CPMG NMR data were acquired on Bruker 700 MHz Avance with a CryoProbe 5 mm TXI (^1H S:N with H2O suppression (2mM sucrose) - 900:1) and excitation sculpting water suppression. Proteins were present at 10 µM in 50 mM phosphate, 100 mM NaCl, pH 7.4 in 100% D2O. In separate NMR tubes, a ^1H CPMG NMR pulse was applied to a 1) mixture of ligands (individual ligands present at 100 µM for the screen and 50 µM for competition experiments) and 2) ligands + protein. […] For the competition experiments, τ was increased to 4.0 ms.

PfGCN5 bromodomain [2] = molecular target: T1, PfGCN5 bromodomain; experiment: biochemical; format: binding; conditions: for Kd: PrOF NMR titration, for 9 average of W1454 and W1379, NS = non-saturating, read-out: PfGCN5 Kd; for Initial Mixture PfGCN5 PrOF NMR Δδ: hit mixture containing the fragment, 400 µM each fragment
Description: (§3) The screening workflow consists of two dependent steps: 1) a PrOF NMR screen of the 5FW-labeled proteins and a cocktail of 4–5 fragments in a single NMR tube; 2) a ^1H CPMG NMR binding assay to deconvolute the hit mixtures for each protein (Figure 1). In the first step, a dual-protein PrOF NMR spectrum was obtained in which 5FW-PfGCN5, 5FW-BPTF (~ 50 µM each) and mixtures of fragments (400 µM individual fragment) were present in the same NMR tube. […] Chemical shift perturbations indicating a ligand binding event were based on a prior cutoff of Δδ ≥ 0.030 ppm as the definition for a hit mixture. This cutoff was based on a statistical analysis of chemical shift perturbations from a prior BRD4 D1 fragment screen and are described further in the experimental section and in Table S2.
(§4) PrOF NMR. PrOF NMR spectra were obtained on a Bruker Avance III HD 500 with the 5 mm Prodigy TCI inverse cryoprobe (^19F S:N 2000:1). […] The DMSO concentration for all experiments was kept constant at 1%. […] For the PrOF NMR screen, 5FW-BPTF and 5FW-PfGCN5 (35–40 µM in 50 mM phosphate, 100 mM NaCl, pH 7.4) were tested with mixtures of 4–5 fragments, where each individual fragment was 400 µM. […] A 10 Hz line broadening was applied. Titrations were fit to Equation (2), where p is the protein concentration and L is the ligand concentration. (2) Δδ=Δδmax × (Kd+P+L ) − (((Kd + P + L )^2) − 4PL)/2P
(§5) A PrOF NMR binding event is characterized as a change in chemical shift (Δδ) from the protein-only spectrum to the protein + fragment mixture spectrum. We used a prior cutoff of Δδ ≥ 0.030 ppm as the definition of a hit mixture, based on a statistical analysis of chemical shift perturbations from a prior BRD4 D1 fragment screen.

BPTF bromodomain [3] = molecular target: T2, BPTF bromodomain (Homo sapiens, UniProt Q12830); experiment: PrOF NMR (dual-protein screen of mixtures, titrations) with 5FW-BPTF; format: binding; set-up: against the bromodomains of BPTF and Plasmodium falciparum GCN5 (PfGCN5); his6; made in house; conditions: for Initial Mixture BPTF PrOF NMR Δδ: hit mixture containing the fragment, 400 µM each fragment
Description: as §3, §4, §5

BPTF bromodomain [4] = molecular target: T2, BPTF bromodomain; experiment: 1H CPMG NMR deconvolution of hit mixtures, BPTF; format: binding; set-up: deconvolution of the hit mixtures using the non-fluorine-labeled bromodomains; made in house; host or cells: E. coli BL21(DE3); conditions: 10 µM protein, 100 µM ligand; for 1H CPMG NMR % Drop in Resonance Intensity BPTF: for 9 from competition experiments (footnote a)
Description: as §1, §2

PfGCN5 bromodomain [5] = molecular target: T1, PfGCN5 bromodomain; experiment: Competition 1H CPMG NMR with PfGCN5; format: binding; conditions: competitor at or above the protein concentration
Description: The competition ^1H CPMG NMR and PrOF NMR assays were employed to further probe the binding mode of 9 to PfGCN5. […] At high concentrations, at or above the protein concentration, the competition maxed out at ~ 50% (Figure 2, Figure S10, Table S5). Conversely, TP-238 was able to compete 9 off from BPTF at low concentrations.
^1H CPMG NMR. ^1H CPMG NMR screen data were acquired on Bruker Avance III HD 500 with the 5 mm Prodigy TCI cryoprobe inverse cryoprobe (^1H 2500:1 S/N). Competition ^1H CPMG NMR data were acquired on Bruker 700 MHz Avance with a CryoProbe 5 mm TXI (^1H S:N with H2O suppression (2mM sucrose) - 900:1) and excitation sculpting water suppression. Proteins were present at 10 µM in 50 mM phosphate, 100 mM NaCl, pH 7.4 in 100% D2O. In separate NMR tubes, a ^1H CPMG NMR pulse was applied to a 1) mixture of ligands (individual ligands present at 100 µM for the screen and 50 µM for competition experiments) and 2) ligands + protein. For competition experiments, the ligands were used individually, and the competitor ligands were spiked into tube 2. ^1H CPMG NMR parameters for the screen: NS = 128, acquisition time = 2 s, τ = 2.5 ms, and L = 120. For the competition experiments, τ was increased to 4.0 ms.

[6] = PrOF NMR titration, NS = non-saturating, NB = no binding
[7] = previous screen, NC = noncompetitive with JQ1 in 1H CPMG competition

SMILES	Kd (BRD4 D1; data from previous screen) [µM]	PfGCN5 CPMG % decrease (PfGCN5 bromodomain [1]) [%]	Initial Mixture PfGCN5 PrOF NMR Δδ (PfGCN5 bromodomain [2])	Initial Mixture BPTF PrOF NMR Δδ (BPTF bromodomain [3])	BPTF CPMG % decrease (BPTF bromodomain [4]) [%]	Kd (BRD4 D1; [7]) [µM]	also measured
N#Cc1cccc(C(=O)NC2CCC3OCCOC3C2)c1 (centres unmarked) [Fragment 1]	> 400	100	++ (++ = 0.050 < Δδ < 0.099)	- (For PrOF NMR = Δδ < 0.029 ppm)	–	–	1H CPMG NMR % Drop in Resonance Intensity PfGCN5 (PfGCN5 bromodomain [1]): +++++ (+++++ = 100%); Kd (PfGCN5 bromodomain [2]): > 1000 µM
COC(=O)N1CCC(CNC(=O)c2ccco2)CC1 [Fragment 2]	450	100	+++ (+++ = 0.1 < Δδ < 0.199)	++ (++ = 0.050 < Δδ < 0.099)	–	–	1H CPMG NMR % Drop in Resonance Intensity PfGCN5 (PfGCN5 bromodomain [1]): +++++ (+++++ = 100%); Kd (PfGCN5 bromodomain [2]): 360 µM
CCC(=O)NCc1nccc(N(C)C)n1 [Fragment 3]	> 400	82	++++ (++++ = Δδ > 0.2)	- (For PrOF NMR = Δδ < 0.029 ppm)	–	–	1H CPMG NMR % Drop in Resonance Intensity PfGCN5 (PfGCN5 bromodomain [1]): ++++ (++++ = 80–99.9%); Kd (PfGCN5 bromodomain [2]): > 1000 µM
Cc1ccc2c(C#N)c(N)sc2c1 [Fragment 4]	> 400	–	- (For PrOF NMR = Δδ < 0.029 ppm)	+ (+ = 0.030 < Δδ < 0.049)	100	–	1H CPMG NMR % Drop in Resonance Intensity BPTF (BPTF bromodomain [4]): +++++ (+++++ = 100%); BPTF Kd (BPTF bromodomain [3]; [6]): no binding; Kd (BPTF bromodomain [3]; [6]): > 1 mM
CC(C)CNc1ncc([N+](=O)[O-])c(N)n1 [Fragment 5]	> 400	–	- (For PrOF NMR = Δδ < 0.029 ppm)	++ (++ = 0.050 < Δδ < 0.099)	65	–	1H CPMG NMR % Drop in Resonance Intensity BPTF (BPTF bromodomain [4]): +++ (+++60–80%); Kd (BPTF bromodomain [3]; [6]): > 1 mM
Cc1cccc(NC(=O)C2CCN(S(C)(=O)=O)CC2)c1 [Fragment 6]	> 400	–	- (For PrOF NMR = Δδ < 0.029 ppm)	+ (+ = 0.030 < Δδ < 0.049)	25	–	Bind BRD4? (BRD4 D1; Y/N, previous screen): not bind; 1H CPMG NMR % Drop in Resonance Intensity BPTF (BPTF bromodomain [4]): + (+ = 20–39.9%); selectivity, binds PfGCN5 over BPTF (PfGCN5 bromodomain [2]; ratio of Kd values): > 6 fold; Kd (BPTF bromodomain [3]; [6]): 0.54 mM
CS(=O)(=O)N1CCC2(CC1)OC(=O)c1ccccc12 [Fragment 7]	> 400	100	+++ (+++ = 0.1 < Δδ < 0.199)	+++ (+++ = 0.1 < Δδ < 0.199)	49	–	1H CPMG NMR % Drop in Resonance Intensity BPTF (BPTF bromodomain [4]): ++ (++ = 40–59.9%); 1H CPMG NMR % Drop in Resonance Intensity PfGCN5 (PfGCN5 bromodomain [1]): +++++ (+++++ = 100%); Kd (PfGCN5 bromodomain [2]): 150 µM; Kd (BPTF bromodomain [3]; PrOF NMR titration): > 1 mM
CCOC(=O)c1c(NC(C)=O)sc(C)c1C [Fragment F0777-0038]	–	100	–	–	100	820	–
CCOC(=O)c1sc(NC(=O)C2CCOC2)cc1C (centres unmarked) [Fragment F0882-2747]	–	63	–	–	54	660	–
CCCC(=O)Nc1cc2c3c(c1)CC(=O)N3CCC2 [Fragment F2666-0003]	–	100	–	–	54	840	–
CCCCNc1nc2c([nH]1)c(=O)n(C)c(=O)n2C [Fragment F3176-0122]	–	77	–	–	80	2500	–
Cc1cc(-c2nnc(NC(=O)C3CC3)o2)nn1C [Fragment F5036-0073]	–	–	–	–	55	1200	–
CN1C[C@H](Nc2cnn(C)c(=O)c2Br)C[C@H](c2ccccc2)C1 [GSK4027, reference compound]	–	–	–	–	–	–	competition maximum in 1H CPMG NMR competition with 9 (PfGCN5 bromodomain [5]): ~ 50%; PrOF NMR titration with 5FW-PfGCN5, result in words (PfGCN5 bromodomain [2]): binds PfGCN5 strongly
Cc1nnc2c3ccccc3c(N[C@@H](C)[C@H](c3ccccc3)N(C)C)nn12 [L-Moses, reference compound]	–	–	–	–	–	–	competition maximum in 1H CPMG NMR competition with 9 (PfGCN5 bromodomain [5]): ~ 50%
